How the values were obtained:
absence seizures = assay: Expanded access program: absence seizures in children and young adults with treatment-resistant epilepsy; format: in vivo, human; settings: 12 weeks of treatment vs 4-week baseline; n = 28; CBD 5 up to 25 mg/kg/day added to baseline AED
Protocol: (§1) The terms “50% responder” and “50% reduction in seizure” are both terms used in clinical studies. In the present application the terms define the percentage of subjects that experienced a greater than or equal to 50% reduction in the number of seizures during treatment with CBD in comparison to the number experienced during the baseline period before the CBD was administered.
(§2) Of 137 children and young adults with severe, childhood onset treatment-resistant epilepsy (TRE), forty-two suffered from epilepsy that was characterised by absence seizures. These subjects were tested with a highly purified extract of cannabidiol (CBD) obtained from a cannabis plant. All subjects presented with absence type seizures, often in addition to other generalised and/or focal seizures. The participants in the study were part of an expanded access compassionate use program for CBD.
The epileptic syndromes that these patients suffered from were as follows: Lennox-Gastaut Syndrome; Myoclonic Absence Epilepsy; Tuberous Sclerosis Complex; Dravet Syndrome; Doose Syndrome; Jeavons Syndrome; CDKL5; Dup15q; Neuronal ceroid lipofuscinoses (NCL) and brain abnormalities. […]

[1] = test system: myoclonic absence seizures; assay: Expanded access program: myoclonic absence seizures in children and young adults with treatment-resistant epilepsy; format: in vivo, human; settings: 12 weeks of treatment vs 4-week baseline; head n = 10; CBD 5 up to 25 mg/kg/day added to baseline AED
Protocol: as §1
as §2, with “epilepsy (TRE), ten suffered from” for “epilepsy (TRE), forty-two suffered from”, “characterised by myoclonic absence seizures.” for “characterised by absence seizures.”, “presented with myoclonic absence type” for “presented with absence type”
The epileptic syndromes that these patients suffered from were as follows: Myoclonic Absence Epilepsy; Doose Syndrome; and epilepsy of unknown cause.
(§3) All patients entered a baseline period of 4 weeks when parents/caregivers kept prospective seizure diaries, noting all countable seizure types.
The patients then received a highly purified CBD extract (greater than 98% CBD w/w) in sesame oil, of known and constant composition, at a dose of 5 mg/kg/day in addition to their baseline anti-epileptic drug (AED) regimen. […]

total seizures = assay: Expanded access program: total seizures in all subjects treated; format: in vivo, human; settings: 12 weeks of treatment, n = 137
Protocol: as §1, §2, §3
The patients then received a highly purified CBD extract (greater than 98% CBD w/w) in sesame oil, of known and constant composition, at a dose of 5 mg/kg/day in addition to their baseline anti-epileptic drug (AED) regimen.
Laboratory testing for hematologic, liver, kidney function, and concomitant AED levels was performed at baseline, and after every 4 weeks of CBD therapy.

[2] = Solubility of the drug substance in water; format: physicochemical
From the text: Sesame oil was selected as an excipient to solubilize the drug substance.

seizures in mice = settings: after pro-convulsant drugs or an electric current; cited from earlier work
seizures [3] = settings: of eight adult patients with generalized epilepsy; cited from earlier work
seizures [4] = settings: 200 mg/day pure CBD, cited from earlier work
seizures [5] = settings: twelve institutionalized adult patients; 200 mg/day pure CBD; open label; cited from earlier work
seizures [6] = settings: previous studies in animals; multiple species and models; cited from earlier work
seizures [7] = settings: Consroe et al., 1977; cited from earlier work

SMILES | <50% reduction in seizures, absence seizures (proportion of patients) (absence seizures) | <50% reduction in seizures, myoclonic absence seizures (proportion of patients) [1] | <50% reduction in seizures, total seizures (proportion of patients) (total seizures) | solubility in water [2] | prevention of seizures (seizures in mice) | patients with marked reduction of seizures (seizures [3]) | patients who became seizure free (seizures [4]; of four adult patients) | seizure frequency in the remainder of patients (seizures [4]; remaining two of four adult patients) | control of seizures (seizures [5]) | anticonvulsant efficacy (seizures [6]) | effect on convulsions (seizures [7])
C=C(C)[C@@H]1CCC(C)=C[C@H]1c1c(O)cc(CCCCC)cc1O [CBD, Cannabidiol] | 36% (n = 10) | 25% (n = 2) | 54% (n = 74) | insoluble in water | able to prevent seizures | 4 | two | unchanged | ineffective in controlling seizures | has anticonvulsant efficacy in multiple species and models | 
CCCCCc1cc(O)c2c(c1)OC(C)(C)[C@@H]1CCC(C)=C[C@@H]21 [THC, Tetrahydrocannabinol] |  |  |  |  |  |  |  |  |  |  | pro-convulsant

Reference: patent US11311498B2, “Use of cannabinoids in the treatment of epilepsy” (GW Pharma Limited, priority 2014, dated 2022)
